Converted amounts (≈) assume the structure as drawn.
Experiments:
L 1210 leucemia = conditions: IMBACH et al; cited from earlier work
L 1210 cells = assay: cytotoxic index after 1 h contact, potential "in vivo" activity (TEST N° 2); format: cell-based, mouse; set-up: key to CYTOTOXIC INDEX: N.S.: not significant; conditions: for CYTOTOXIC INDEX: 1 hour contact at dose giving 20% index, read after 48 hours; for POTENTIAL "IN VIVO" ACTION: active if cytotoxic index ≥40%
Description: (§1) The test used is that of W. J. Durkin et al. Cancer Research 1979, 39, 402-407, modified.
(§2) All the nitrosoureas were dissolved in 70% ethanol in the proportion of 10 mg/ml.
2--Determination of the potential "in vivo" activity
L 1210 cells, under conditions similar to the preceding protocol, were contacted for 1 hour with a dose of the various products tested corresponding to a cytotoxic index equal to 20%. After this time, the cells were placed in culture medium not containing nitrosoureas and incubated at 37° C. After 48 hours, the cytotoxic index was determined.

L 1210 USA Tumor = assay: "in vivo" activity on L1210 U.S.A. tumor, 5 mg/kg i.p. days 1, 5, 9; set-up: species or system mouse
Description: The tumor L1210 U.S.A. is more resistant than tumor L1210 IGR.
(§3) The experiments were identical to those described in preceding paragraph 4 but lower doses were used.
There were inoculated into the mice, 10^5 tumor cells of L1210 U.S.A. intraperitoneally in a volume of 0.2 ml.
At days 1, 5 and 9, the compounds of the invention under test were injected intraperitoneally, at a lower dose than that used in the experiment described at 4, that is to say in the proportion of 5 mg/kg.

L 1210 IGR TUMOR = assay: "in vivo" activity on L1210 IGR tumor, 5 mg/kg i.p. days 1, 5, 9; set-up: species or system mouse
Description: as §3
The same protocol was carried out with the tumor L1210 IGR, by inoculating 10^5 tumor cells of L1210 IGR intraperitoneally in the volume of 0.2 ml then, at days 1, 5 and 9, there were injected intraperitoneally 5 mg/kg of each of the compounds to be tested.

leucemia L1210 = assay: effective "in vivo" activity in the mouse, leucemia L1210, compound 2, i.p. days 1, 5, 9
Description: The experimentation which is reported below used the compound 2 prepared according to the above example 6 (Ref. IC 81 1183).
The mice (female, average weight 20 g) used were F1 /DBA2 /C57 /B1 (Animal selection and breeding center of the Laboratories of the CNRS, Orleans, La Source).
The mice distributed in cages by drawing lots were inoculated on day "0" with 10^5 leucemia L1210 cells.
The animals were treated with the compound IC 81 1183 intraperitoneally on days 1, 5 and 9.
The suspensions were prepared just before the injection: product 2+neutralized and sterilized olive oil.
The mortality of the animals was observed regularly, the relative increase in the survival (T/C×100) was calculated from the average survival of the treated animals (T) and that of the control animals (C).

L 1210 cell = assay: 20% cytotoxic index, trypan blue exclusion, 24 h (TEST N° 1); format: cell-based, mouse; set-up: key to DOSE CORRESPONDING TO A 20% CYTOTOXIC INDEX: N.S.: not significant; conditions: L1210 cells, 24 hours at 37° C.; for IC20: Mus musculus, read-out: DOSE COR[…] A 20% CYTOTOXIC INDEX, read-out: DOSE CORRESPONDING TO A 20% CYTOTOXIC INDEX
Description: as §1, §2
1--Determination of the 20% cytotoxic index
100 μl of an L 1210 cell suspension (10^6 cells per ml) in R P M I 1640 culture medium supplemented with 10% of fetal calf serum and 40 μg/ml of gentamycin, containint various doses of the products to be tested (0 to 100 μg/ml) were incubated 24 hours at 37° C. At the end of this time, the cell viability is determined by the trypan blue exclusion test. The cytotoxic index is defined by the formula: [formula]
The amount of ethanol is the same in the cultures containing the products to be tested and in the control cultures (this amount has no effect either on growth nor on cell viability).
For each product the dose which gives a cytotoxic index of 20% is determined.

leucemia L 1210 IGR = assay: "in vivo" activity on leucemia L1210 IGR, 20 mg/kg i.p. days 1, 5, 9; set-up: species or system mouse; conditions: for percentage of cured mice: surviving more than 60 days
Description: Female DBA2 mice were used, about 8 weeks old and weighing about 20 g from the IFFA-CREDO center (les Oncins, 69210 Arbresles)
At day "0", each mouse received intraperitoneally an inoculum of […] in a volume of 0.2 ml.
After tumoral graft, the mice were distributed at random into 21 cages of 5 animals, themselves then distributed, by drawing lots, into 6 experimental series. Within these 6 experimental series, there were constituted a control series of 6 cages and 5 experimental series of 3 cages each, and of which the mice were intended to be treated by the compounds of the invention.
(§4) The protocol was identical for the 3 tumors and the 5 compounds of the invention to be tested.
(§5) As regards the experimental series to be treated, each mouse received, at days 1, 5 and 9, intraperitoneally, a dose of 20 mg/kg of the compound to be tested, in the volume of 0.2 ml of neutralized and sterilized olive oil.
(§6) As regards the control series, each mouse received, intraperitoneally, 0.2 ml of neutralized and sterilized olive oil.
(§7) The results are expressed by the relative increase in survival (T/C×100) calculated from the average survival of the treated animals (T) and that of the control animals (C)
(§8) The mice surviving more than 60 days were considered as cured.
(§9) The figures between parentheses indicate the percentage of cured mice.

melanoma B16 = assay: "in vivo" activity on melanoma B16, 20 mg/kg i.p. days 1, 5, 9; set-up: species or system mouse; conditions: for percentage of cured mice: surviving more than 60 days
Description: Female C57 B 1/6 mice were used, about 8 weeks old and weighing about 20 g, from the IFFA-CREDO center.
At day "0", each mouse received intraperitoneally an inoculum of 2×10^6 tumor cells in a volume of 0.5 ml.
After tumoral graft, distribution at random was carried out as indicated above, to obtain a control series of 8 cages and 5 experimental series of 4 cages each, and of which the mice were intended to be treated by the compounds of the invention.
as §4, §5, §6, §7, §8, §9

Tumor LEWIS 3LL = assay: "in vivo" activity on Lewis tumor, 20 mg/kg i.p. days 1, 5, 9; set-up: species or system mouse; conditions: for percentage of cured mice: surviving more than 60 days
Description: Procedure was under the conditions which have just been described previously with regard to melanoma B16, by injecting the tumor cells, in the proportion of 2×10^6 per mouse, in the volume of 0.2 ml.
as §4, §5, §6, §7, §8, §9

[1] = compared with literature curves

Compound | oncostatic action on L 1210 leucemia (L 1210 leucemia) | CYTOTOXIC INDEX (L 1210 cells) | POTENTIAL "IN VIVO" ACTION (L 1210 cells) | Average survival ±2 σm (L 1210 USA Tumor) | Median survival (L 1210 USA Tumor) | T/C × 100 (average survival) (L 1210 USA Tumor) | T/C × 100 (median survival) (L 1210 USA Tumor) | Average survival ±2 σm (L 1210 IGR TUMOR) | Median survival (L 1210 IGR TUMOR) | T/C × 100 (average survival) (L 1210 IGR TUMOR) | T/C × 100 (median survival) (L 1210 IGR TUMOR) | IC20 (L 1210 cell) | relative increase in survival (T/C×100) (leucemia L 1210 IGR) | percentage of cured mice (leucemia L 1210 IGR) | relative increase in survival (T/C×100) (melanoma B16) | percentage of cured mice (melanoma B16) | relative increase in survival (T/C×100) (Tumor LEWIS 3LL) | percentage of cured mice (Tumor LEWIS 3LL) | other results
CC(=O)O[C@@H]1[C@H](OC(C)=O)COC(NC(=O)N(CCCl)N=O)[C@@H]1OC(C)=O (some centres unmarked) [RPCNU, 1-(2-chloro-ethyl) 3-(ribopyranosyl-2',3',4'-triacetate)-nitrosourea] | oncostatic action | – | – | – | – | – | – | – | – | – | – | – | – | – | – | – | – | – | –
CO[C@@H]1C[C@@H](NC(=O)N(CCCl)N=O)[C@H](O)[C@@H](C)O1 [IC 1183, Methyl 3-[3-(2-chloroethyl) 3-nitrosoureido] 2,3,6-tridesoxy α-D-arabinohexopyranoside] | – | 77% | + (if the cytotoxic index was equal to or greater than 40%, the product concerned would be active "in vivo" in the mouse) | 13,5 ± 0,91 | 14,0 | 157 | 161 | 18,7 ± 1,30 | 19 | 207 | 210 | 50 µg/mL (≈ 169 µM) | .infin. (The sign 00 indicates that 50% at least of the mice were cured) | 100% | 234 | 5% | .infin. (The sign 00 indicates that 50% at least of the mice were cured) | 75% | T/C (×100) (leucemia L1210; 1.25 mg/kg i.p. days 1, 5, 9): 118; T/C (×100) (leucemia L1210; 2.50 mg/kg i.p. days 1, 5, 9): 158; T/C (×100) (leucemia L1210; 5 mg/kg i.p. days 1, 5, 9): 170; T/C (×100) (leucemia L1210; 10 mg/kg i.p. days 1, 5, 9): 220; T/C (×100) (leucemia L1210; 20 mg/kg i.p. days 1, 5, 9): 00 (T/C=00: for definition: more than 50% of the treated animals were finally cured); T/C (×100) (leucemia L1210; 40 mg/kg i.p. days 1, 5, 9): 00 (T/C=00: for definition: more than 50% of the treated animals were finally cured); T/C (×100) (leucemia L1210; 50 mg/kg i.p. days 1, 5, 9): 100; T/C above 40 mg/kg (leucemia L1210; after 40 mg/kg, rise in toxicity): sudden drop of the T/C; curve of efficiency vs CCNU and Me CCNU (leucemia L1210; [1]): very distinctly higher than those obtained by CCNU and Me CCNU; curve of efficiency vs RFCNU and RPCNU (leucemia L1210; [1]): as good as that obtained with RFCNU and RPCNU; animals cured finally (leucemia L1210; doses of 20 and 40 mg/kg): all the animals at doses of 20 and 40 mg/kg were cured finally; Toxicity (leucemia L1210; ≥60 mg/kg i.p. days 1, 5, 9): Toxicity
CC(=O)OC[C@H]1OC(OC(C)=O)[C@H](NC(=O)N(CCCl)N=O)[C@@H](OC(C)=O)[C@@H]1OC(C)=O (some centres unmarked) [GCNU, 3-(2-chloro-1-ethyl-2'-desoxy-glucopyranosyl-14,3',4",6'-tetracetate)nitrosourea] | oncostatic action | – | – | – | – | – | – | – | – | – | – | – | – | – | – | – | – | – | –
CO[C@@H]1C[C@@H](N(C)C(=O)N(CCCl)N=O)[C@H](O)[C@@H](C)O1 [IC 1375, Methyl 3-[3-(2-chloroethyl) 1-methyl 3-nitrosoureido] 2,3,6-tridesoxy α-D-arabinohexopyranoside] | – | 69% | + (if the cytotoxic index was equal to or greater than 40%, the product concerned would be active "in vivo" in the mouse) | – | – | – | – | – | – | – | – | 60 µg/mL (≈ 194 µM) | – | – | – | – | – | – | –
CO[C@@H]1C[C@@H](O)[C@H](O)[C@@H](CNC(=O)N(CCCl)N=O)O1 [IC 1350] | – | N.S. | – | 10,5 ± 0,74 | 10,25 | 126 | 118 | 14,3 ± 1,23 | 14,25 | 158 | 157 | – | 362 | 20% | 225 | 5% | 325 | 40% | DOSE CORRESPONDING TO A 20% CYTOTOXIC INDEX (L 1210 cell): N.S.
CO[C@@H]1C[C@@H](NC(=O)N(CCCl)N=O)[C@H](OC)[C@@H](C)O1 [IC 1373, Methyl 3-[3-(2-chloroethyl) 3-nitrosoureido] 2,3,6-tridesoxy 4-O-methyl alpha-D-arabinohexopyranoside] | – | 68% | + (if the cytotoxic index was equal to or greater than 40%, the product concerned would be active "in vivo" in the mouse) | 10,6 ± 0,44 | 10,6 | 123 | 122 | 12,9 ± 0,55 | 13,1 | 142 | 145 | 80 µg/mL (≈ 258 µM) | .infin. (The sign 00 indicates that 50% at least of the mice were cured) | 100% | 165 | 0% | 316 | 30% | –
CC(=O)O[C@H]1[C@H](OC(C)=O)COC(NC(=O)N(CCCl)N=O)[C@@H]1OC(C)=O (some centres unmarked) [XPCNU, 1-(2-chloro-ethyl) 3-(xylopyranosyl 2',3',4'-triacetate)-nitrosourea] | oncostatic action | – | – | – | – | – | – | – | – | – | – | – | – | – | – | – | – | – | –

Reference: patent US4902791A, “Nitrosourea derivatives, process for their preparation and medicaments containing them” (Sanofi S.A., priority 1983, dated 1990)
